Results published in ChEMBL document CHEMBL1123919, “Molecular modification of anticholinergics as probes for muscarinic receptors. 3. Conformationally restricted analogues of benactyzine” (J Med Chem, 1987).

Experiments:
[1] = target: Muscarinic acetylcholine receptor; assay: Compound was evaluated for the inhibition of binding of [3H]QNB (quinuclidinyl benzilate) to striatal Muscarinic acetylcholine receptor; format: protein assay
Rattus norvegicus = organism: Rattus norvegicus; assay: Antimuscarinic potency is measured as its ability to block ACh-induced contractions of the rat ileum.; format: functional; conditions: read-out: pA2 (converted)

CCN(CC)C[C@H]1C[C@@H]2COC(c3ccccc3)(c3ccccc3)[C@@H]2O1.Cl
IC50 [1]: 19 µM

CCN(CC)CC[C@@H]1COC(c2ccccc2)(c2ccccc2)[C@@H]1O
Kb (Rattus norvegicus): 0.646 µM

CCN(CC)CCC1COC(c2ccccc2)(c2ccccc2)C1=O.Cl (stereo not given)
IC50 [1]: 2 µM
Kb (Rattus norvegicus): 0.447 µM

CCN(CC)CC[C@H]1COC(c2ccccc2)(c2ccccc2)[C@@H]1O
Kb (Rattus norvegicus): 20 µM
